Data on 13 compounds can be found in patent publication US8987195B2 (priority 2012, dated 2015).

The first experiment has as its system HCV genotype 1b replicon. In words: HCV replicon assay, genotype 1b replicon EC50. As to conditions: Hepatitis C virus, genotype 1b replicon; read-out: EC50 [gt-1b]. It counts as cell-based, Hepatitis C virus. The protocol:
Measuring Compound Inhibitory Potency (Genotype 1b Replicon EC50 (nM))
Measurement of inhibition by compounds was performed using the HCV replicon system. Several different replicons encoding different HCV genotypes or mutations were used. In addition, potency measurements were made using different formats of the replicon assay, including different ways of measurements and different plating formats. See Jan M. Vrolijk et al., A replicons-based bioassay for the measurement of interferons in patients with chronic hepatitis C, 110 J. VIROLOGICAL METHODS 201 (2003); Steven S. Carroll et al., Inhibition of Hepatitis C Virus RNA Replication by 2′-Modified Nucleoside Analogs, 278(14) J. BIOLOGICAL CHEMISTRY 11979 (2003). However, the underlying principles are common to all of these determinations, and are outlined below.
Stable neomycin phosphotransferase encoding replicon-harboring cell lines were used, so all cell lines were maintained under G418 selection prior to the assay. In some cases the cell lines encoded a luciferase:Neo^r fusion and could be assayed either directly by determination of RNA copy number, or indirectly through measurement of the luciferase activity.
To initiate an assay, replicon cells were plated in the presence of a dilution series of test compound in the absence of G418. Typically, the assays were performed in a 96-well plate format for manual operation, or a 384 well plate in an automated assay. Replicon cells and compound were incubated for 24-48 hours, depending on the assay. At the end of the assay, cells are washed free of media and compound and then lysed. For direct quantitation, RNA levels were measured by ^32P-probe hybridization and protection, or in a TAQMAN based assay and normalized to cellular cyclophilin A RNA levels. In some cases, luciferase activity was measured using a conventional luciferase assay. In all cases EC50 determinations were calculated as a percent of a DMSO control by fitting the data to a four parameter fit function.
Consider `CC(C)(C)OC(=O)N[C@H]1CCCCC/C=C\[C@@H]2C[C@@]2(C(=O)NS(=O)(=O)C2(C)CC2)NC(=O)[C@@H]2C[C@]3(CCc4c(c(-c5cccc(F)c5)nc5ccccc45)O3)CN2C1=O` [Example 13, tert-Butyl (2R,6S,13aS,14aR,16aS,Z)-5′-(3-fluorophenyl)-14a-(1-methylcyclopropylsulfonylcarbamoyl)-5,16-dioxo-1′,2′,3,5,6,7,8,9,10,11,13a,14,14a,15,16,16a-hexadecahydro-1H-spiro[cyclopropa[e]pyrrolo[1,2-a][1,4]diazacyclopentadecine-2,3′-pyrano[2,3-c]quinoline-]-6-ylcarbamate], for which the EC50 was determined as 4.23 nM.
Same read-out and setting: as for `CC(C)(C)OC(=O)N[C@H]1CCCCC/C=C\[C@@H]2C[C@@]2(C(=O)NS(=O)(=O)C2(C)CC2)NC(=O)[C@@H]2C[C@@]3(CCc4c(c(-c5cccc(F)c5)nc5ccccc45)O3)CN2C1=O` [Example 14, tert-Butyl (2S,6S,13aS,14aR,16aS,Z)-5′-(3-fluorophenyl)-14a-(1-methylcyclopropylsulfonylcarbamoyl)-5,16-dioxo-1′,2′,3,5,6,7,8,9,10,11,13a,14,14a,15,16,16a-hexadecahydro-1H-spiro[cyclopropa[e]pyrrolo[1,2-a][1,4]diazacyclopentadecine-2,3′-pyrano[2,3-c]quinoline]-6-ylcarbamate], the figure is 6.5 nM.
With `CC(C)(C)OC(=O)N[C@H]1CCCCC/C=C\[C@@H]2C[C@@]2(C(=O)NS(=O)(=O)C2CC2)NC(=O)[C@@H]2C[C@]3(CCc4c(c(-c5cccc(F)c5)nc5ccccc45)O3)CN2C1=O` [Example 15, tert-Butyl (2R,6S,13aS,14aR,16aS,Z)-14a-(cyclopropylsulfonylcarbamoyl)-5′-(3-fluorophenyl)-5,16-dioxo-1′,2′,3,5,6,7,8,9,10,11,13a,14,14a,15,16,16a-hexadecahydro-1H -spiro[cyclopropa[e]pyrrolo[1,2-a][1,4]diazacyclopentadecine-2,3′-pyrano[2,3-c]quinoline]-6-ylcarbamate], the EC50 stood at 9.36 nM.
On to `CC(C)(C)OC(=O)N[C@H]1CCCCC/C=C\C2CC2(C(=O)NS(=O)(=O)C2(C)CC2)NC(=O)C2C[C@]3(CCc4c(c(C5CC5)nc5ccccc45)O3)CN2C1=O` (stereo partly drawn) [Example 18, tert-Butyl (2R,6S,13aS,14aR,16aS,Z)-5′-cyclopropyl-14a-(1-methylcyclopropylsulfonylcarbamoyl)-5,16-dioxo-1′,2′,3,5,6,7,8,9,10,11,13a,14,14a,15,16,16a-hexadecahydro-1H-spiro[cyclopropa[e]pyrrolo[1,2-a][1,4]diazacyclopentadecine-2,3′-pyrano[2,3-c]quinoline-]-6-ylcarbamate], for which the 50% effective concentration (EC50) worked out at 0.77 nM.
On the same count and under the same terms, as for `CC(C)COC(=O)N[C@H]1CCCCC/C=C\[C@@H]2C[C@@]2(C(=O)NS(=O)(=O)C2(C)CC2)NC(=O)[C@@H]2C[C@]3(CCc4c(c(-c5cccc(F)c5)nc5ccccc45)O3)CN2C1=O` [Example 21, Isobutyl (2R,6S,13aS,14aR,16aS,Z)-5′-(3-fluorophenyl)-14a-(1-methylcyclopropylsulfonylcarbamoyl)-5,16-dioxo-1′,2′,3,5,6,7,8,9,10,11,13a,14,14a,15,16,16a-hexadecahydro-1H-spiro[cyclopropa[e]pyrrolo[1,2-a][1,4]diazacyclopentadecine-2,3′-pyrano[2,3-c]quinoline]-6-ylcarbamate], the figure is 0.81 nM; as for `CC1(OC(=O)N[C@H]2CCCCC/C=C\[C@@H]3C[C@@]3(C(=O)NS(=O)(=O)C3(C)CC3)NC(=O)[C@@H]3C[C@]4(CCc5c(c(-c6cccc(F)c6)nc6ccccc56)O4)CN3C2=O)CC1` [Example 22, 1-Methylcyclopropyl (2R,6S,13aS,14aR,16aS,Z)-5′-(3-fluorophenyl)-14a-(1-methylcyclopropylsulfonylcarbamoyl)-5,16-dioxo-1′,2′,3,5,6,7,8,9,10,11,13a,14,14a,15,16, 16a-hexadecahydro-1H-spiro[cyclopropa[e]pyrrolo[1,2-a][1,4]diazacyclopentadecine-2,3′-pyrano[2,3-c]quinoline]-6-ylcarbamate], 4.14 nM.
Still for that read-out and setting: as for `CC(C)(C)NC(=O)N[C@H]1CCCCC/C=C\[C@@H]2C[C@@]2(C(=O)NS(=O)(=O)C2(C)CC2)NC(=O)[C@@H]2C[C@]3(CCc4c(c(-c5cccc(F)c5)nc5ccccc45)O3)CN2C1=O` [Example 23, (2R,6S,13aS,14aR,16aS,Z)-6-(3-tert-Butylureido)-5′-(3-fluorophenyl)-N-(1-methylcyclopropylsulfonyl)-5,16-dioxo-1′,2′,3,5,6,7,8,9,10,11,13a,14,14a,15,16,16a-hexadecahydro-1H-spiro[cyclopropa[e]pyrrolo[1,2-a][1,4]diazacyclopentadecine-2,3′-pyrano[2,3-c]quinoline]-14a-carboxamide], the figure is 9.13 nM; as for `CC1(S(=O)(=O)NC(=O)[C@@]23C[C@H]2/C=C\CCCCC[C@H](NC(=O)CC(F)(F)F)C(=O)N2C[C@@]4(CCc5c(c(-c6cccc(F)c6)nc6ccccc56)O4)C[C@H]2C(=O)N3)CC1` [Example 24, (2R,6S,13aS,14aR,16aS,Z)-5′-(3-Fluorophenyl)-N-(1-methylcyclopropylsulfonyl)-5,16-dioxo-6-(3,3,3-trifluoropropanamido)-1′,2′,3,5,6,7,8,9,10,11,13a,14,14a,15,16, 16a-hexadecahydro-1H-spiro[cyclopropa[e]pyrrolo[1,2-a][1,4]diazacyclopentadecine-2,3′-pyrano[2,3-c]quinoline]-14a-carboxamide], 5.92 nM; as for `Cc1nc2ccccc2c2c1O[C@]1(CC2)C[C@H]2C(=O)N[C@]3(C(=O)NS(=O)(=O)C4(C)CC4)C[C@H]3/C=C\CCCCC[C@H](NC(=O)NC(C)(C)C)C(=O)N2C1` [Example 76, (2R,6S,12Z,13aS,14aR,16a5)-6-[(tert-butylcarbamoyl)amino]-5′-methyl-N-[(1-methylcyclopropyl)sulfonyl]-5,16-dioxo-1,1′,2′,6,7,8,9,10,11,13a,14,15,16,16a-tetradecahydrospiro[cyclopropa[e]pyrrolo[1,2-a][1,4]diazacyclopentadecine-2,3′-pyrano[2,3-c]quinoline]-14a(5H)-carboxamide], 11.9 nM.
Same read-out and setting: the figure for `CC(C)(C)OC(=O)N[C@H]1CCCCC/C=C\[C@@H]2C[C@@]2(C(=O)O)NC(=O)[C@@H]2C[C@]3(CCc4c(c(-c5cccc(F)c5)nc5ccccc45)O3)CN2C1=O` [Example 77, (2R,6S,12Z,13aS,14aR,16aS)-6-[(tert-butoxycarbonyl)amino]-5′-(3-fluorophenyl)-5,16-dioxo-1,1′,2′,6,7,8,9,10,11,13a,14,15,16,16a-tetradecahydrospiro[cyclopropa[e]pyrrolo[1,2-a][1,4]diazacyclopentadecine-2,3′-pyrano[2,3-c]quinoline]-14a(5H)-carboxylic acid] is above 100 nM.
Turning to `Cc1nc2ccccc2c2c1O[C@]1(CC2)C[C@H]2C(=O)N[C@]3(C(=O)NS(=O)(=O)C4(C)CC4)C[C@H]3/C=C\CCCCC[C@H](NC(=O)OC3(C)CCC3)C(=O)N2C1` [Example 80, 1-methylcyclobutyl [(2R,6S,12Z,13aS,14aR,16aS)-5′-methyl-14a-{[(1-methylcyclopropyl)sulfonyl]carbamoyl}-5,16-dioxo-1,1′,2′,5,6,7,8,9,10,11,13a,14,14a,15,16,16a-hexadecahydrospiro[cyclopropa[e]pyrrolo[1,2-a][1,4]diazacyclopentadecine-2,3′-pyrano[2,3-c]quinolin]-6-yl]carbamate], the EC50 stood at 1.47 nM.

The same experiment, now with this note: genotype 1b replicon; read-out: EC50 [gt-1b].
Consider `COc1ccc2nc(C(F)(F)F)c3c(c2c1)[C@H](OC(=O)NS(=O)(=O)C1(C)CC1)C[C@]1(C[C@H]2C(=O)N[C@]4(C(=O)NS(=O)(=O)C5(C)CC5)C[C@H]4/C=C\CCCCC[C@H](NC(=O)OC(C)(C)C)C(=O)N2C1)O3` [Example 52, tert-Butyl ((1′R,2S,6S,13aS,14aR,16aS,Z)-9′-methoxy-14a-(((1-methylcyclopropyl)sulfonyl)carbamoyl)-1′-((((1-methylcyclopropyl)sulfonyl)carbamoyl)oxy)-5,16-dioxo-5′-(trifluoromethyl)-1′,2′,3,5,6,7,8,9,10,11,13a,14,14a,15,16,16a-hexadecahydro-1H-spiro[cyclopropa[e]pyrrolo[1,2-a][1,4]diazacyclopentadecine-2,3′-pyrano[2,3-c]quinolin]-6-yl)carbamate], for which the EC50 was found to be 1.77 nM.
Same read-out and setting: as for `COc1ccc2nc(C(F)(F)F)c3c(c2c1)[C@H](OC(=O)NS(=O)(=O)C1(C)CC1)C[C@]1(C[C@H]2C(=O)N[C@]4(C(=O)NS(=O)(=O)C5(C)CC5)C[C@H]4/C=C\CCCCC[C@H](NC(=O)OC(C)(C)C)C(=O)N2C1)O3` [Example 53, tert-Butyl ((1′R,2S,6S,13aS,14aR,16aS,Z)-9′-methoxy-14a-(((1-methylcyclopropyl)sulfonyl)carbamoyl)-1′-((((1-methylcyclopropyl)sulfonyl)carbamoyl)oxy)-5,16-dioxo-5′-(trifluoromethyl)-1′,2′,3,5,6,7,8,9,10,11,13a,14,14a,15,16,16a-hexadecahydro-1H-spiro[cyclopropa[e]pyrrolo[1,2-a][1,4]diazacyclopentadecine-2,3′-pyrano[2,3-c]quinolin]-6-yl)carbamate], the figure is 15.9 nM.
